Assays:
Format in all cases: functional
HBL-100 = assay: Antiproliferative activity against human HBL100 cells after 48 hrs by sulforhodamine B assay; settings: HBL-100, 48 h
SW1573 = assay: Antiproliferative activity against human SW1573 cells after 48 hrs by sulforhodamine B assay; settings: SW1573, 48 h
HeLa = assay: Antiproliferative activity against human HeLa cells after 48 hrs by sulforhodamine B assay
A549 = assay: Antiproliferative activity against human A549 cells after 48 hrs by sulforhodamine B assay; settings: A549, 48 h
WiDr = assay: Antiproliferative activity against human WiDr cells after 48 hrs by sulforhodamine B assay
T47D = assay: Antiproliferative activity against human T47D cells after 48 hrs by sulforhodamine B assay

Structure (SMILES) | GI50 (SW1573) | GI50 (HeLa) | GI50 (A549) | GI50 (T47D) | GI50 (HBL-100) | GI50 (WiDr)
Cc1ccc(S(=O)(=O)OC[C@H]2O[C@@H](OCc3noc(-c4ccc([N+](=O)[O-])cc4)n3)[C@@H]3OC4(CCCC4)O[C@@H]32)cc1 | > 100 µM | > 100 µM | > 100 µM | > 100 µM | > 100 µM | > 100 µM
CC1(C)O[C@H]2[C@H](OCc3noc(-c4ccc([N+](=O)[O-])cc4)n3)O[C@H](CSc3ncn[nH]3)[C@H]2O1 | > 100 µM | 89 µM | 90 µM | > 100 µM | > 100 µM | > 100 µM
COc1cc(C2=NOC(CO[C@@H]3O[C@H](CSc4ncn[nH]4)[C@H]4OC5(CCCC5)O[C@@H]34)C2)cc(OC)c1OC (stereo not given in full) | > 100 µM | 38 µM | 37 µM | 55 µM | 43 µM | 53 µM
COc1cc(-n2cc(CO[C@@H]3O[C@H](CSc4ncn[nH]4)[C@H]4OC5(CCCC5)O[C@@H]34)nn2)cc(OC)c1OC | > 100 µM | 30 µM | 33 µM | 41 µM | 84 µM | 26 µM
CC1(C)O[C@H]2[C@H](OCc3noc(-c4ccc([N+](=O)[O-])cc4)n3)O[C@H](CSc3nnc(N)s3)[C@H]2O1 | > 100 µM | > 100 µM | > 100 µM | > 100 µM | > 100 µM | > 100 µM
COc1cc(-c2cc(CO[C@@H]3O[C@H](CSc4ncn[nH]4)[C@H]4OC5(CCCC5)O[C@@H]34)on2)cc(OC)c1OC | 97 µM | 67 µM | 59 µM | 94 µM | 87 µM | 74 µM

These reach a lower GI50 (SW1573). Values come first.

GI50 (SW1573) | GI50 (HeLa) | GI50 (A549) | GI50 (T47D) | Structure (SMILES) | GI50 (HBL-100) | GI50 (WiDr)
17 µM | 16 µM | 15 µM | 18 µM | Nc1nnc(SC[C@H]2O[C@@H](OCc3noc(-c4ccc(Cl)cc4)n3)[C@@H]3OC4(CCCC4)O[C@@H]32)s1 | 30 µM | 15 µM
36 µM | 37 µM | 28 µM | 44 µM | COc1cc(-c2nc(CO[C@@H]3O[C@H](CSc4ncn[nH]4)[C@H]4OC5(CCCC5)O[C@@H]34)no2)cc(OC)c1OC | 34 µM | 42 µM
10 µM | 14 µM | 13 µM | 10 µM | Clc1ccc(-c2nc(CO[C@@H]3O[C@H](CSc4ncn[nH]4)[C@H]4OC5(CCCC5)O[C@@H]34)no2)cc1 | 24 µM | 4.5 µM
16 µM | 28 µM | 14 µM | 19 µM | Nc1nnc(SC[C@H]2O[C@@H](OCc3noc(-c4ccc([N+](=O)[O-])cc4)n3)[C@@H]3OC4(CCCC4)O[C@@H]32)s1 | 26 µM | 26 µM
15 µM | 20 µM | 10 µM | 20 µM | O=[N+]([O-])c1ccc(-c2nc(CO[C@@H]3O[C@H](CSc4ncn[nH]4)[C@H]4OC5(CCCC5)O[C@@H]34)no2)cc1 | 24 µM | 20 µM
38 µM | 31 µM | 36 µM | 42 µM | COc1cc(-c2nc(CO[C@@H]3O[C@H](CSc4nnc(N)s4)[C@H]4OC5(CCCC5)O[C@@H]34)no2)cc(OC)c1OC | 33 µM | 41 µM
29 µM | 17 µM | 29 µM | 52 µM | CC(=O)OC[C@H]1O[C@@H](OCc2noc(-c3ccc([N+](=O)[O-])cc3)n2)[C@@H]2OC3(CCCC3)O[C@@H]21 | 23 µM | 36 µM
27 µM | 15 µM | 32 µM | 50 µM | O=[N+]([O-])c1ccc(-c2nc(CO[C@@H]3O[C@H](CO)[C@H]4OC5(CCCC5)O[C@@H]34)no2)cc1 | 17 µM | 41 µM
60 µM | 99 µM | 99 µM | > 100 µM | CC1(C)O[C@H]2[C@H](OCc3noc(-c4ccc([N+](=O)[O-])cc4)n3)O[C@H](CO)[C@H]2O1 | 99 µM | > 100 µM
